One test relates to H23 (NCI-H23) cells. In words: MTS assay (modified MTT), parent cell line. The class given is cell-based. How it is done:
(§1) A modified MTT assay (MTS assay, Promega, Madison, Wis.) was used to assess the impact of RRM1 expression on therapeutic efficacy of gemcitabine and platinum-containing agents in vitro. This MTS assay utilized 3-(4,5-dimethylthiazol-2-yl)-5-(3-carboxymethoxyphenyl)-2-(4-sulfophenyl)-2H-tetrazolium as the reagent. The assay was performed by seeding 4,000 cells/well in 96 well flat-bottom plates. H23-Ct, H23-R1, H23siR1, H23siCt cells were continuously exposed to drug for 72 or 96 hr. After 3 hr of incubation at 37° C., the absorbance was measured at 490 nm in a microplate reader (Benchmark Plus, Bio-Rad, Hercules, Calif.). All experiments were repeated three times.
(§2) The MTS assay was performed by seeding 4,000 cells/well in 96 well flat-bottom plates. H23-Ct, H23-R1, H23 siR1, H23siCt cells were continuously exposed to drug for 72 or 96 h. The assay was performed with 3-(4,5-dimethylthiazol-2-yl)-5-(3-carboxymethoxyphenyl)-2-(4-sulfophenyl)-2H-tetrazolium reagent. After 3 h of incubation at 37° C., the absorbance was measured at 490 nm. All experiments were repeated three times.

The test system of test [1] is H23siR1 cells. In words: MTS assay, cell line with siRNA-reduced RRM1 expression. The class given is cell-based.
From the text: (§3) Reduced expression of RRM1 correlates with increased sensitivity to gemcitabine. Stable, genetically modified cell lines with increased and decreased RRM1 expression and corresponding controls were generated (Gautam et al., Oncogene 22:2135-42, 2003). H23, originating from a lung adenocarcinoma, was used as the parent cell line (Carney et al., Cancer Res 45:2913-23, 1985). H23siR1 was generated by stable transfection of NCI-H23 with a pSUPER-siRRM1 construct. These cells express an siRNA that targets RRM1, thereby causing decreased expression of RRM1. To generate this construct, the pSUPER-GFP/neo vector (OligoEngine, Seattle, Wash.) was digested with BglII and HindIII and the annealed oligonucleotides (5′-GATCCCCgacgctagagcggtettat[…]ataagaccgctctagcgte[…]-3′(SEQ ID NO:1) and 5′-[…]gacgctagagcggtcttatTC TCTTGAAataagaccgctctagcgtcGGG-3′ (SEQ ID NO:2)) were ligated into the vector. The 19 nucleotide RRM1 target sequences are denoted by lower-case letters. The control H23siCt cell line was generated which expressed an siRNA targeting the sequence […] (SEQ ID NO:3). This sequence has no similarity to any known gene. H23-R1 is a stable RRM1 overexpressing cell line, and H23-Ct is its corresponding control. Both were generated by transfection with full-length RRM1 cDNA cloned into the expression plasmid pCMV-Tag2 (Stratagene, La Jolla, Calif.) as previously described (Gautam et al., Oncogene 22:2135-42, 2003). The level of RRM1 expression in these cell lines was assessed by real-time quantitative RT-PCR and Western blot analysis.
as §1, §2

The test system of a further test is ERCC1 expression. In words: Summary of observations: response by ERCC1 expression level.
The subject of test [2] is H23siCt cells. Put plainly: MTS assay, siRNA control cell line. In kind it is cell-based.
From the text: as §3, §1, §2
A general note: Formazan colour is commonly taken as a measure of viable cells.

The next test relates to H23-Ct cells. In words: MTS assay, control cell line of H23-R1. The class given is cell-based.
From the text: as §3, §1, §2

In a further test the test system is RRM1 expression. Put plainly: Summary of observations: response by RRM1 expression level.
Test [3] has as its system H23-R1 cells. Put plainly: Drug-induced apoptosis, annexin V labeling by flow cytometry. In kind it is cell-based. How it is done: (§4) To determine drug-induced in vitro apoptosis, 3×10^5 cells/well were seeded in six-well plates and allowed to attach overnight. Chemotherapeutic agents were added to the culture at the indicated concentrations. After 2, 4, and 6 hours of treatment annexin V labeling of the cells was performed as recommended by the manufacturer (BD Pharmingen, San Diego, Calif.). The percentage of labeled cells was determined by flow cytometry (FACScalibur, Becton Dickinson, Franklin Lakes, N.J.). […] The proportion of cells labeled after 6 h of treatment with 250 nM gemcitabine was 6.6-6.9% in control cell lines, 2.6% in H23-R1, and 15.2% in H23siR1. Cisplatin exposure for 6 h at 200 nM yielded 14.5-15.1% apoptotic cells in H23-Ct and H23siCt, 5.5% apoptotic cells in H23-R1, and 19.0% apoptotic cells in H23siR1.
(§5) Induction of apoptosis as a result of drug exposure was determined with 3×10^5 cells/well in six-well plates after 2, 4 and 6 hours of treatment. Cells were then labeled with annexin V, and labeling was determined by flow cytometry (FACScalibur, Becton Dickinson). After 4 h and 6 h of gemcitabine treatment 2.55% and 5.05% of the H23siCt cells were apoptotic while 5.09% and 15.7% of H23siR1 cells were apoptotic (FIG. 4). Likewise, the proportion of apoptotic cells after exposure to […] was higher in H23siR1 than in control cells. […] The increased apoptosis caused by both drugs in cell lines with reduced RRM1 expression was significant (p<0.05) as compared to control cells.

The subject of test [4] is H23siR1 cells. The description is as above. The class given is cell-based. As to the method:
as §4, §5

Test [5] relates to control cell lines H23-Ct and H23siCt. Described as above. The class given is cell-based. As to conditions: 6 h. How it is done:
as §4

Test [6] has as its system H23-R1 cells. In words: MTS assay, RRM1-overexpressing cell line. In kind it is cell-based.
From the text: as §3, §1, §2

In test [7] the test system is H23siCt cells. In words: Drug-induced apoptosis, annexin V labeling by flow cytometry. In kind it is cell-based. How it is done: as §5
For orientation: Flow cytometry measures light scatter and fluorescence of single cells or particles in a stream.

[8] abbreviates: H23 (NCI-H23) parent cell line, continuous exposure 72 or 96 hr, read-out: IC50 +/− SD.
Where [9] appears, read: H23siR1, RRM1 5-fold down, continuous exposure 72 or 96 hr, read-out: IC50 +/− SD.
The mark [10] stands for this setting: RRM1 no change, continuous exposure 72 or 96 hr, read-out: IC50 +/− SD.
Where [11] appears, read: H23-R1, RRM1 3-fold up, continuous exposure 72 or 96 hr, read-out: IC50 +/− SD.
[12] abbreviates: Homo sapiens, H23 (NCI-H23) parent cell line, continuous exposure 72 or 96 hr, read-out: IC50 +/− SD.
Setting [13] is: continuous exposure 72 or 96 h, read-out: IC50.

Six molecules from patent publication US20130164747A1, “Predicting Treatment Response in Cancer Subjects” (University of South Florida, priority 2005, published 2013) can be followed below.

Molecules are shown by their SMILES. Where two headings read alike, the source gives them in different places.

Consider `N.N.O=C([O-])C1(C(=O)[O-])CCC1.[Pt+2]` [Carboplatin, carboplatin], for which the IC50 in the test with H23 (NCI-H23) cells (setting [8]) was 12 µM; with H23siR1 cells [1] (setting [9]) it was 10 µM; with H23siCt cells [2] (setting [10]), 13 µM; in the test on H23-Ct cells (setting [10]), 15 µM. The “Response at ERCC1 high expression” value in the test with ERCC1 expression was “resistant”. Besides, the “Response at ERCC1 low expression” value in the test on ERCC1 expression is “sensitive”. For the same molecule, in the test on RRM1 expression, the “Response at RRM1 high expression” value is on record as “Minimal”. Besides, the “Response at RRM1 low expression” value with RRM1 expression was “Minimal”.
Consider `N.N.[Cl][Pt][Cl]` [Cisplatin, cisplatin], for which the Apoptotic cells was 5.5% with H23-R1 cells [3] (H23-R1, cisplatin 200 nM, 6 h); 19.0% with H23siR1 cells [4] (H23siR1, cisplatin 200 nM, 6 h); 14.5-15.1% in [5] (H23-Ct and H23siCt, cisplatin 200 nM). For the same molecule, the IC50 with H23 (NCI-H23) cells (setting [8]) came out at 1.2 µM; in the test on H23siR1 cells [1] (setting [9]) it was 0.95 µM; in the test on H23siCt cells [2] (setting [10]), 1 µM; in the test with H23-Ct cells (setting [10]), 1.25 µM; in the test on H23-R1 cells [6] (setting [11]) it was 1.5 µM. The “Response at ERCC1 high expression” value with ERCC1 expression was “resistant”. Moreover, the “Response at ERCC1 low expression” value with ERCC1 expression is on record as “sensitive”. Besides, in the test with RRM1 expression, the “Response at RRM1 high expression” value is given as “Minimal”. In addition, in the test on RRM1 expression, the “Response at RRM1 low expression” value is “Minimal”.
With `CC(=O)O[C@@]12CO[C@@H]1C[C@H](O)[C@@]1(C)C(=O)[C@H](O)C3=C(C)[C@@H](OC(=O)[C@H](O)[C@@H](NC(=O)OC(C)(C)C)c4ccccc4)C[C@@](O)([C@@H](OC(=O)c4ccccc4)[C@H]21)C3(C)C` [Docetaxel, docetaxel], the “Apoptosis compared with control cells” value in the test on H23-R1 cells [3] (H23-R1 versus control cells) was “more apoptosis”. Moreover, the “Proportion of apoptotic cells compared with control cells” value in the test on H23siR1 cells [4] (H23siR1 versus control cells) is given as “higher”. For the same molecule, the IC50 in the test with H23 (NCI-H23) cells (setting [12]) was 1 µM; in the test with H23siR1 cells [1] (setting [9]), 0.006 µM; in the test on H23siCt cells [2] (setting [10]) it was 2.5 µM; in the test on H23-Ct cells (setting [10]), 0.7 µM; in the test with H23-R1 cells [6] (setting [11]), 0.009 µM. In the test with RRM1 expression, the “Response at RRM1 high expression” value is “Sensitive”. Further, the “Response at RRM1 low expression” value in the test with RRM1 expression was “Sensitive”. Moreover, in the test with RRM1 expression, the “Response at RRM1 medium expression” value was “Resistant”.
Consider `Nc1ccn([C@@H]2O[C@H](CO)[C@@H](O)C2(F)F)c(=O)n1` [Gemcitabine, gemcitabine], for which the “Proportion of cells labeled with annexin V” value in the test on H23-R1 cells [3] (H23-R1, 250 nM gemcitabine, 6 h) is given as 2.6%; in the test on H23siR1 cells [4] (H23siR1, 250 nM gemcitabine, 6 h), 15.2%; in test [5] (control cell lines, 250 nM gemcitabine), 6.6-6.9%. The Apoptotic cells in the test with H23siR1 cells [4] (H23siR1, 4 h of treatment (Example 4, FIG. 4)) was 5.09%; in the test on H23siR1 cells [4] (H23siR1, 6 h of treatment (Example 4, FIG. 4)) it was 15.7%; with H23siCt cells [7] (4 h of treatment (Example 4, FIG. 4)), 2.55%; in the test on H23siCt cells [7] (6 h of treatment (Example 4, FIG. 4)) it was 5.05%. Further, the IC50 in the test with H23 (NCI-H23) cells (setting [12]) stood at 0.5 µM; with H23siR1 cells [1] (setting [9]), 0.1 µM; in the test on H23siCt cells [2] (setting [10]), 1.02 µM; in the test on H23-Ct cells (setting [10]) it was 0.75 µM; in the test with H23-R1 cells [6] (setting [11]), 6 µM. Further, the “IC50 of H23siR1 lower than IC50 of H23siCt (more sensitive than control cell line)” value in the test with H23siR1 cells [1] (H23siR1 versus H23siCt) is 10 fold. The “IC50 of H23-R1 higher than IC50 of H23-Ct (more resistant than control cell line)” value with H23-R1 cells [6] (H23-R1 versus H23-Ct) is 8 fold. The “Response at RRM1 high expression” value in the test with RRM1 expression is recorded as “resistant”. In addition, the “Response at RRM1 low expression” value in the test with RRM1 expression was “Sensitive”.
On to `Nc1nc2[nH]cc(CCc3ccc(C(=O)N[C@@H](CCC(=O)O)C(=O)O)cc3)c2c(=O)[nH]1` [Pemetrexed, pemetrexed], for which, in the test with RRM1 expression, the “Response at RRM1 high expression” value is “resistant” and the “Response at RRM1 low expression” value was “Sensitive”.
Take `CCC1=C[C@@H]2CN(C1)Cc1c([nH]c3ccccc13)[C@@](C(=O)OC)(c1cc3c(cc1OC)N(C)[C@H]1[C@@](O)(C(=O)OC)[C@H](OC(C)=O)[C@]4(CC)C=CCN5CC[C@]31[C@@H]54)C2` [Vinorelbine, vinorelbine]: the IC50 with H23 (NCI-H23) cells (Homo sapiens, NCI-H23, continuous exposure 72 or 96 h, read-out: IC50) came to 8 µM; with H23siR1 cells [1] (H23siR1, continuous exposure 72 or 96 h, read-out: IC50), 0.01 µM; in the test with H23siCt cells [2] (setting [13]) it was 20 µM; with H23-Ct cells (setting [13]) it was 20 µM; with H23-R1 cells [6] (H23-R1, continuous exposure 72 or 96 h, read-out: IC50) it was 0.4 µM. Also, the “Response at RRM1 high expression” value in the test on RRM1 expression is “Sensitive”. Besides, the “Response at RRM1 low expression” value in the test on RRM1 expression was “Sensitive”. In the test on RRM1 expression, the “Response at RRM1 medium expression” value is recorded as “Resistant”.
